Assay results from patent publication US20210380606A1, “5-AZAINDAZOLE DERIVATIVES AS ADENOSINE RECEPTOR ANTAGONISTS” (Merck Patent GmbH, priority 2018, published 2021).

Legend:
Assay type in all cases: cell-based
Human T cell = Human T cell IL-2; conditions: human T cells
human A2B receptors = target: T1, human A2B receptors (Homo sapiens, UniProt P29275); assay: Functional human A2B receptor activity, recombinant HEK293 cells, cAMP (HTRF); conditions: read-out: A2B (Category)
T1 construct: expressed in transfected cells; host or cells: HEK293
T1 sequence (P29275 1-332): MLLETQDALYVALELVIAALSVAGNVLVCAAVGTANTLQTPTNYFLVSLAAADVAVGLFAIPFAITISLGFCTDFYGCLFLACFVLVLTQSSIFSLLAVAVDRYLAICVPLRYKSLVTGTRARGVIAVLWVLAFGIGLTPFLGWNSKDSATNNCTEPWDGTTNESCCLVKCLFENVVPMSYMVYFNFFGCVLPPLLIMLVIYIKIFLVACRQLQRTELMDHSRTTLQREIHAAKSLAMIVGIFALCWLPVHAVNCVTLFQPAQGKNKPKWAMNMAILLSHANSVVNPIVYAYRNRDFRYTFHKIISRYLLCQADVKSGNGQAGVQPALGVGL
Outline: (§1)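 Receptor function was assessed by measuring cAMP, the second messenger for adenosine receptors. Cells were incubated for 15 min, after which HTRF reagents were added and cellular cAMP levels were read.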

[1] = target: T2, Gs-coupled human A2A receptor (Homo sapiens, UniProt P29274); assay: Human T cell assay, endogenous A2A receptor, cAMP (HTRF)
T2 construct: The endogenous functional activity of the Gs-coupled human A2A receptor was measured in T cells; endogenous in cells; host or cells: human pan T cells isolated from PBMC of fresh whole blood
T2 sequence (P29274 whole entry): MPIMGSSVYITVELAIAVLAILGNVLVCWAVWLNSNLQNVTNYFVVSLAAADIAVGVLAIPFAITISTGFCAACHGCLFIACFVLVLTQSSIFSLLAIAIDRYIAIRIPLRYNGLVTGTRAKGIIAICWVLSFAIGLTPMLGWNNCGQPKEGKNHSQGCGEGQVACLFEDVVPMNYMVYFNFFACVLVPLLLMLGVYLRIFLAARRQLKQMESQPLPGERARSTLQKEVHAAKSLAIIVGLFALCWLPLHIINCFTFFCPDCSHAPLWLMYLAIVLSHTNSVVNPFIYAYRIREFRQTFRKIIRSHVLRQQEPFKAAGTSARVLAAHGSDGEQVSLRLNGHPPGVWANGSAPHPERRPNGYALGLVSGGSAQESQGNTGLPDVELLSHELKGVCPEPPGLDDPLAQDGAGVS
Method: The endogenous functional activity of the Gs-coupled human A2A receptor was measured in T cells, where this receptor is highly expressed. Determination of receptor activity was done by quantification of cAMP, which is a second messenger for adenosine receptors.
In short, human pan T cells were isolated from human PBMC (MACS Pan T Cell Isolation Kit, Miltenyi Biotec) that have been derived from fresh whole blood. The T cells were seeded in 384-well microtiter plates and treated with test compounds. […] Finally, HTRF reagents (cAMP Femto Kit, CisBio) were added to the wells, and after 1 h cellular cAMP levels were determined using the ENVISION (Perkin Elmer) plate reader.
The obtained raw data were normalized against the inhibitor control and the neutral control (DMSO) and the normalized data were fitted using Genedata Screener software.

mouse Pan T cells = assay: Mouse T cell IL-2 rescue from NECA (CD3/CD28-activated Pan T cells, ELISA); conditions: 24 h
Text: Adenosine (Ado) in tumor microenvironment can inhibit T cell activity by signaling through A2A receptors and suppress cytokine secretion by T cells. […] Potential A2A antagonists or A2A/A2B dual antagonists can rescue T cells from this inhibition. Herein, we describe the in vitro system we established using Pan T cells from mouse spleens to screen potential A2A antagonists or A2A/A2B dual antagonists for their activity. The method described involves the use of CD3/CD28 pre-coated beads to stimulate Pan T cells purified from mouse splenocytes, combined with the addition of A2A agonist along with potential A2A or A2A/A2B dual antagonists to evaluate potentiation of T cell cytokine production.
Briefly, mouse Pan T cells are purified from spleens of BALB/c mice using Pan T cell isolation kit Mouse II (MACS Miltenyi biotech Cat #Order no. 130-095-130) according to manufacturer's protocol. The purified T cells are seeded in Nunc™ 96-Well Polystyrene Round Bottom Microwell Plates in RPMI medium with 10% heat inactivated fetal bovine serum. The cells are rested at 37° C. for 1 h before activating with CD3/CD28 pre-coated beads (Dynabeads™ Mouse T-Activator CD3/CD28; Cat #11456D). After 30 min the cells are treated with varying doses of test antagonist(s). […] After 24 h incubation IL-2 levels in the supernatants are measured by ELISAs according to manufacturer's protocol (R&D systems Cat #DY402 (IL-2)). Once the concentrations are calculated, the difference of cytokine concentration of DMSO control and agonist alone control is calculated and the percentage of rescue by each concentration of antagonist is calculated by using Microsoft Excel. These percentages of cytokine rescue in a dose dependent manner of antagonist is plotted in GraphPad Prism software and IC50 is calculated.

human A2A receptors = target: T3, human A2A receptors (Homo sapiens, UniProt P29274); assay: Functional human A2A receptor activity, recombinant HEK293 cells, cAMP (HTRF); conditions: read-out: A2A (Category)
T3 construct: expressed in transfected cells; host or cells: HEK293
T3 sequence (P29274 whole entry): as above
Outline: as §1

IC50 (Human T cell) [µM] | IC50 (human A2B receptors) [µM] | IC50 [1] [µM] | IC50 (mouse Pan T cells) [µM] | IC50 (human A2A receptors) [µM] | Structure (SMILES)
< 0.1 | < 0.1 | < 0.1 | < 1 | < 0.1 | O=C(c1cc2c(cn1)c(-c1coc3ccc(F)cc13)nn2CC(F)(F)F)N1CCCOCC1 [Compound 109, [3-(5-fluorobenzofuran-3-yl)-1-(2,2,2-trifluoroethyl)pyrazolo[4,3-c]pyridin-6-yl]-(1,4-oxazepan-4-yl)methanone]
< 0.1 | < 0.1 | < 0.1 | < 1 | < 0.1 | O=C(c1cc2c(cn1)c(-c1coc3ccccc13)nn2CC(F)(F)F)N1CCOCC(O)C1 (stereo not drawn) [Compound 224, [3-(benzofuran-3-yl)-1-(2,2,2-trifluoroethyl)pyrazolo[4,3-c]pyridin-6-yl]-(6-hydroxy-1,4-oxazepan-4-yl)methanone]

Structure (SMILES) | IC50 (Human T cell) [µM] | IC50 (human A2B receptors) [µM] | IC50 [1] [µM] | IC50 (mouse Pan T cells) [µM] | IC50 (human A2A receptors) [µM]
O=C(c1cc2c(cn1)c(-c1cnc3c(F)cccn13)nn2CC(F)(F)F)N1[C@@H]2CC[C@H]1C[C@@H](O)C2 [Compound 85, [3-(8-fluoroimidazo[1,2-a]pyridin-3-yl)-1-(2,2,2-trifluoroethyl)pyrazolo[4,3-c]pyridin-6-yl]-(3-endo-hydroxy-8-azabicyclo[3.2.1]octan-8-yl)methanone] | < 1 | < 0.1 | < 0.1 | < 0.1 | < 0.1
